Source: article PMC10791743, “Selective CK1α degraders exert antiproliferative activity against a broad range of human cancer cell lines” (Nature Communications, 2024)
Values joined by “and” are separate entries in the source; they are usually repeats but may differ in a detail not shown here. Identical values can stand only once.

What was measured:
MOLM-13 cells = assay: Annexin-V staining for apoptosis, wild type MOLM-13; assay type: cell-based, human; details: for total apoptosis, flow cytometry: MOLM-13; for Late apoptosis, flow cytometry / Early apoptosis, flow cytometry: WT
Description: Wild type and CRBN^−/− MOLM-13 cells were grown in 12-well plates (TPP, Techno Plastic Products AG) with 500,000 cells per well in 2 ml total media volume. Cells were treated with 1 μl/ml DMSO or 1 μM compound in triplicate, and incubated for 24 or 72 h at 37 °C. To prepare samples, this buffer was used: 10 mM HEPES, 0.14 M NaCl, 2.5 mM CaCl2 pH 7.4, 2% v/v FBS in UltraPure water (Invitrogen). After incubation, samples were collected in 5-ml tubes for flow cytometry (Falcon). Single-stain controls consisted of ~150 μl of multiple samples combined. Wells were washed with 1 ml of buffer that was added to the corresponding sample tube. Cells were centrifuged at 500×g for 5 min at 4 °C to form a pellet. Supernatant was decanted and cells were washed again with 3 ml of buffer, then centrifuged. After decanting the supernatant, 3 μl of APC-conjugated anti-Annexin-V antibody (BioLegend) was added to each tube in the residual buffer left behind. Samples were mixed by vortex and incubated at room temperature in the dark for 20 min. Samples were then washed and centrifuged a final time, decanting the supernatant and blotting the tubes to remove residual buffer. 50 μl of buffer with DAPI was added to all appropriate samples and mixed, then analyzed by flow cytometry.
Supplementary Fig. 13: Gating for Annexin V flow cytometry analysis. Total cells were gated to remove cell debris, followed by single cell gating on the FSC-A/FSC-H diagonal. Within the single […]
Live cells are negative for both fluorescent markers, DAPI positive/APC negative cells are necrotic, APC positive/DAPI negative cells are still alive but in the early stages of apoptosis, and double positive cells are dead via apoptosis. Percentages of early and late apoptosis were plotted in supplementary figures 4 and 5.
(1 picture or pasted object on this page, not shown here)

CRBN−/− MOLM-13 cells = assay: Wild type versus CRBN−/− MOLM-13 cells (viability, CRBN dependence); assay type: cell-based, human; design: key to cell viability, dose-response replicate values: % viability = 100 − % activity (RLU normalized to negative control); details: for cell viability, dose-response replicate values: MOLM-13 CRBN KO
From the text: Having identified SJ7095 as a compound with a potent antiproliferative effect in MOLM-13 cells, we next examined whether the observed effect was CRBN-dependent. […] In an orthogonal approach, we tested SJ7095 in wild-type and CRBN-knockout MOLM-13 cells in a cell viability assay (Supplementary Fig. 1b).
CRBN^−/− MOLM-13 cells were created using CRISPR-Cas9 technology. Briefly, 1 million MOLM-13 cells were transiently transfected with precomplexed ribonuclear proteins (RNPs) consisting of 400 pmol of chemically modified sgRNA (Synthego), 135pmol of SpCas9 protein (St. Jude Protein Production Core), and 500 ng of pMaxGFP (Lonza) via nucleofection (Lonza, 4D-Nucleofector™ X-unit) using solution SF and program EO100 in a 100 µl cuvette according to the manufacturer’s recommended protocol. Transfected cells (GFP+) were single-cell sorted by flow cytometry (St. Jude Flow Cytometry and Cell Sorting Shared Resource) into 96-well tissue culture-treated plates 5 days post nucleofection. Cells were clonally expanded and screened for the desired targeted modification (out-of-frame indels) via targeted deep sequencing using gene-specific primers with partial Illumina adapter overhangs as previously described. Genotyping of clones was performed using CRIS.py[59]. Knockout clones were identified as clones containing only out-of-frame indels. PowerPlex® Fusion System (Promega) was used to confirm final clone identification (Hartwell Center for Biotechnology at St. Jude). All clones tested negative for mycoplasma by the MycoAlert^TMPlus Mycoplasma Detection Kit (Lonza). CRBN knockout confirmed by immunoblot (Supplementary Material).
MOLM-13 cells were plated in Corning 8804BC white 384-well assay plates at the appropriate cell number per well and incubated overnight at 37 °C in a humidified 5 % CO2 incubator. Compounds were transferred to the assay plate from a dose-response plate using a Labcyte Echo 650 Acoustic Liquid Handler (Beckman Coulter , USA). Cytotoxicity was determined following 72 h of incubation using Promega’s CellTiter-Glo reagent according to the manufacturer’s recommendation.
Luminescence was measured on the Envision plate reader (PerkinElmer, USA). Raw luminescence relative light unit (RLU) values for each compound at each concentration were normalized to obtain % activity using the following equation (1): 100 × [(mean(negctrl) – compound)/(mean (negctrl) – mean (posctrl))]. The % activity was converted to % viability using the following equation (2):
(100 – % activity), and then pooled from replicate experiments prior to fitting. Here, negctrl and posctrl refer to the negative (DMSO) and positive controls (staurosporine) on each plate. Dose-response curves were fit to the Hill equation using the GraphPad Prism (version 10). […]

CRBN = biological target: T1, CRBN (Homo sapiens, UniProt Q96SW2); assay: CRBN fluorescence polarization (FP) displacement assay; assay type: binding; design: key: % activity normalized to DMSO (0) and CC-220 (100) controls
T1 construct: 6XHis (N)
Description: The assay cocktail was prepared by combining 6XHis-CRBN-DDB1 protein (200 nM) and Cy5-O-Len probe (30 nM) in 20 mM HEPES pH 7, 150 mM NaCl, 0.005% Tween-20 assay buffer. […] Then 20 μL of the assay cocktail was dispensed to wells of the assay plate with a Multidrop Combi Reagent Dispenser (Thermo Fisher Scientific, USA). The plates were incubated in the dark for 1 h at room temperature and then read on an Envision plate reader (Perkin Elmer, USA). Raw intensity values for each compound at each concentration were normalized to obtain % activity using the following equation: 100×[(mean(negctrl)–compound)/(mean (negctrl)–mean (posctrl))], and then pooled from replicate experiments prior to fitting. Here, negctrl and posctrl refer to the negative (DMSO) and positive controls (CC-220) on each plate. Dose-response curves were fit to the Hill equation using the GraphPad Prism (version 10).

T1 sequence (Q96SW2 whole entry): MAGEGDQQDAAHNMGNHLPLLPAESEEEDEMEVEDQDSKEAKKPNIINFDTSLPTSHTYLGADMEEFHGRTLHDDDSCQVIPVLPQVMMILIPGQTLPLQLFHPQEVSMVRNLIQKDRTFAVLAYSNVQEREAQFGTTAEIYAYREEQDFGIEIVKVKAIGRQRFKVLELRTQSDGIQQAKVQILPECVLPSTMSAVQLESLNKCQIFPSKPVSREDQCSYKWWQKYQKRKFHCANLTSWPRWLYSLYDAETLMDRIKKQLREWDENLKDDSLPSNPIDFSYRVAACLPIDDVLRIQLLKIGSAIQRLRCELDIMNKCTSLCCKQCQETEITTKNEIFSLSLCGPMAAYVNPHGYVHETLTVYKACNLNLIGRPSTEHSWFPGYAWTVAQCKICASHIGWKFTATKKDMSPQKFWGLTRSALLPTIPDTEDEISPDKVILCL
T1 sequence (Q16531 whole entry partner): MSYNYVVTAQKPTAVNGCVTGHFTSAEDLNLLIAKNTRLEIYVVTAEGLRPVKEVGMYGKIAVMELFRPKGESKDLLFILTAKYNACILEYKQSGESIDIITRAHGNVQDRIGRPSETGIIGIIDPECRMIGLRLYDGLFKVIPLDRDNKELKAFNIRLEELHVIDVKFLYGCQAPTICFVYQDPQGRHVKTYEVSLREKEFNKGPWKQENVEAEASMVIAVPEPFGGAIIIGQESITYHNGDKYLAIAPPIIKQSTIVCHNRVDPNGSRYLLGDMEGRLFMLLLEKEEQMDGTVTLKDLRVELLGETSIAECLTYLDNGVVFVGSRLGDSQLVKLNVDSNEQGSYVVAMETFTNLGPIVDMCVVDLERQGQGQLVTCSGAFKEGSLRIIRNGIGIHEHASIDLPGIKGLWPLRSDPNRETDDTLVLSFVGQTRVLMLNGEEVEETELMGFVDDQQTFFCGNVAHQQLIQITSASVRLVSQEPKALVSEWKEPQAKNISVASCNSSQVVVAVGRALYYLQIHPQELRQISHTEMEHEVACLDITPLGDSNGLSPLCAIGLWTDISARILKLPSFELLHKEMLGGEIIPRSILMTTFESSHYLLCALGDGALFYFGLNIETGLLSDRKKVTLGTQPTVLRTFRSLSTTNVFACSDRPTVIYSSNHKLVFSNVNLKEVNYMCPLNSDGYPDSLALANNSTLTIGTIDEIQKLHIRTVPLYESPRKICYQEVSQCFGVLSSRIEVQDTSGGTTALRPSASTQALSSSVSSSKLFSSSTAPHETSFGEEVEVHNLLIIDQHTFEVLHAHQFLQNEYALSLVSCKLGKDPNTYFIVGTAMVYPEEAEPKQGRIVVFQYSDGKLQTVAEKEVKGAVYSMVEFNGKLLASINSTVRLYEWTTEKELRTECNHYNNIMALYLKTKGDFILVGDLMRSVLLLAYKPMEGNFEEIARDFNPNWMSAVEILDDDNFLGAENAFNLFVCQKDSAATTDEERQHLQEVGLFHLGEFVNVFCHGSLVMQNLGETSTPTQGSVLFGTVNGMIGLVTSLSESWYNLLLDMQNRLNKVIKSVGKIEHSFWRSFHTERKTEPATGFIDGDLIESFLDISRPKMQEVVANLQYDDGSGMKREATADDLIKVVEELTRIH

`Cc1cccc(C(=O)Nc2ccc3c(c2)CN(C2CCC(=O)NC2=O)C3=O)c1` (stereo not shown) [SJ0040] was tested, and the “Treatment-induced cell death (annexin-V)” value (MOLM-13 cells; 1 μM, 72 h, vs DMSO) was “increased cell death”, the “total apoptosis, flow cytometry” value (MOLM-13 cells; SI_Fig 4c, DMSO 9.7, 8.6, 9.8) was 14.9 and 12.6 and 13.6 and the “total apoptosis, flow cytometry” value (MOLM-13 cells; SI_Fig 5c, DMSO 8, 7.6, 6.1) was 33.8 and 33.6 and 34.8. The “Late apoptosis, flow cytometry” value (MOLM-13 cells; SI_Fig 4b, DMSO 3, 2.7, 3) was 4.1 and 3.7 and 4.5, the “Early apoptosis, flow cytometry” value (MOLM-13 cells; SI_Fig 4b, DMSO 6.8, 5.8, 6.8) was 10.8 and 9 and 9.1 and the “Late apoptosis, flow cytometry” value (MOLM-13 cells; SI_Fig 5b, DMSO 1.5, 1.2, 1.2) was 11.1 and 11.7 and 11.8. The “Early apoptosis, flow cytometry” value (MOLM-13 cells; SI_Fig 5b, DMSO 6.5, 6.4, 4.9) was 22.7 and 21.8 and 23.1, the viability at 0.00126002 µM (CRBN−/− MOLM-13 cells; Homo sapiens, MOLM-13, MOLM-13 CRBN KO, Conc 0.00126002 uM, read-out: cell viability, dose-response replicate values) was 97.2% and the viability at 0.0113402 µM (CRBN−/− MOLM-13 cells; Homo sapiens, MOLM-13, MOLM-13 CRBN KO, Conc 0.0113402 uM, read-out: cell viability, dose-response replicate values) was 96.7%. It also gave a viability at 0.0340206 µM (CRBN−/− MOLM-13 cells; Homo sapiens, MOLM-13, MOLM-13 CRBN KO, Conc 0.0340206 uM, read-out: cell viability, dose-response replicate values) of 93.1%, a viability at 0.102062 µM (CRBN−/− MOLM-13 cells; Homo sapiens, MOLM-13, MOLM-13 CRBN KO, Conc 0.102062 uM, read-out: cell viability, dose-response replicate values) of 89.2% and a viability at 0.306185 µM (CRBN−/− MOLM-13 cells; Homo sapiens, MOLM-13, MOLM-13 CRBN KO, Conc 0.306185 uM, read-out: cell viability, dose-response replicate values) of 88.4%. For the same molecule, the viability at 0.918556 µM (CRBN−/− MOLM-13 cells; Homo sapiens, MOLM-13, MOLM-13 CRBN KO, Conc 0.918556 uM, read-out: cell viability, dose-response replicate values) was 97.5%, the viability at 2.75567 µM (CRBN−/− MOLM-13 cells; Homo sapiens, MOLM-13, MOLM-13 CRBN KO, Conc 2.75567 uM, read-out: cell viability, dose-response replicate values) was 84.5% and the viability at 8.267 µM (CRBN−/− MOLM-13 cells; Homo sapiens, MOLM-13, MOLM-13 CRBN KO, Conc 8.267 uM, read-out: cell viability, dose-response replicate values) was 48.7%. For the same molecule, the “cell viability, dose-response replicate values” (from here on “cell viability”) (CRBN−/− MOLM-13 cells; Conc 0.00126002 uM) was 101.892 and 99.1853, the “cell viability” value (CRBN−/− MOLM-13 cells; Conc 0.00378006 uM) was 77.9399 and 92.8153 and 102.961 and the “cell viability” value (CRBN−/− MOLM-13 cells; Conc 0.0113402 uM) was 90.8518 and 98.3247. For the same molecule, the “cell viability” value (CRBN−/− MOLM-13 cells; Conc 0.0340206 uM) was 99.2582 and 100.85, the “cell viability” value (CRBN−/− MOLM-13 cells; Conc 0.102062 uM) was 95.1601 and 101.209 and the “cell viability” value (CRBN−/− MOLM-13 cells; Conc 0.306185 uM) was 92.1664 and 101.967. For the same molecule, the “cell viability” value (CRBN−/− MOLM-13 cells; Conc 0.918556 uM) was 93.1747 and 96.6395, the “cell viability” value (CRBN−/− MOLM-13 cells; Conc 2.75567 uM) was 84.7802 and 96.7661 and the “cell viability” value (CRBN−/− MOLM-13 cells; Conc 8.267 uM) was 53.0309 and 66.5957. For the same molecule, the “CRBN binding FP, Activity” value (CRBN; SJ10040, [Compound] 2.71597 mM) was 47.7349 and 37.554 and 42.475, the “CRBN binding FP, Activity” value (CRBN; SJ10040, [Compound] 8.14792 mM) was 56.459 and 48.508 and 56.8103 and the “CRBN binding FP, Activity” value (CRBN; SJ10040, [Compound] 24.44375 mM) was 60.7319 and 59.4621 and 64.1617. For the same molecule, the “CRBN binding FP, Activity” value (CRBN; SJ10040, [Compound] 73.33125 mM) was 69.456 and 67.5893 and 79.2322.
